By Km is commonly meant the concentration of substrate that gives half-maximal velocity.

One assay concerns the target T1, GlmU (Escherichia coli, UniProt P0ACC7).
T1 construct: full-length in pET28a, His-tag kept; expressed in E. coli BL21(DE3)
The assay can be described thus: surface plasmon resonance, immobilised His-tagged GlmU, […] equilibrium affinity. It is filed as binding. The note with it: read-out: equilibrium dissociation constant. (SPR reads the build-up and loss of mass on a sensor chip optically.)

Another assay addresses T2, MadA (Escherichia coli, UniProt P0ADQ2, M17A).
T2 construct: gene fabY; full-length GNAT-hot dog protein, dimer, pET28a His-tag, M17A to remove second start site; expressed in E. coli BL21(DE3)
The assay can be described thus: malonyl-CoA decarboxylase assay, HPLC. The settings on record: 0.1 M Tris pH 7, 0.2 M NaCl, 37 °C; given for the Mad proteins collectively. The assay is classed as biochemical.

Assay [1] addresses T3, MadB (Shewanella oneidensis, UniProt Q8E989, S54A).
T3 construct: gene yiiD
The assay can be described thus: malonyl-CoA decarboxylase assay, HPLC. It is filed as biochemical. The settings on record: 4 mM malonyl-CoA, 0.1 M Tris pH 7, 0.2 M NaCl, 37 °C.

Assay [2] addresses T4, MadB (Shewanella oneidensis, UniProt Q8E989, D79A).
T4 construct: gene yiiD
The assay can be described thus: malonyl-CoA decarboxylase assay, HPLC. It is filed as biochemical. The note with it: 4 mM malonyl-CoA, 0.1 M Tris pH 7, 0.2 M NaCl, 37 °C.

The target of assay [3] is T5, MadB (Shewanella oneidensis, UniProt Q8E989).
T5 construct: gene yiiD
T5 sequence (Q8E989 1-145): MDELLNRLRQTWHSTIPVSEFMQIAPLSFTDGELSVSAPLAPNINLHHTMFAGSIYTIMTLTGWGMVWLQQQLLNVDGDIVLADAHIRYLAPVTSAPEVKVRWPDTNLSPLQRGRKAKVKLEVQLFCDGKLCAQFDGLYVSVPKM
Briefly: malonyl-CoA decarboxylase assay, HPLC. It is filed as biochemical. The settings on record: 0.1 M Tris pH 7, 0.2 M NaCl, 37 °C; given for the Mad proteins collectively.

The next assay deals with T6, MadA^C (Escherichia coli, UniProt P0ADQ2).
T6 construct: gene fabY; C-terminal hot dog domain, residues 171-329, His6-tag cleaved by thrombin, dimer; expressed in E. coli BL21(DE3)
T6 sequence (P0ADQ2 171-329): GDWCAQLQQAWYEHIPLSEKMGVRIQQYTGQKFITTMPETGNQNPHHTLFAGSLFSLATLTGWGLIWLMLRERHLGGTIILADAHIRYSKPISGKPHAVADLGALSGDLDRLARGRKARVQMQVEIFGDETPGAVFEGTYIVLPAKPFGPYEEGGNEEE
The assay can be described thus: malonyl-CoA decarboxylase assay, HPLC. It is filed as biochemical. The note with it: 0.1 M Tris pH 7, 0.2 M NaCl, 37 °C; given for the Mad proteins collectively.

T3 sequence (Q8E989 entry or part of it S54A): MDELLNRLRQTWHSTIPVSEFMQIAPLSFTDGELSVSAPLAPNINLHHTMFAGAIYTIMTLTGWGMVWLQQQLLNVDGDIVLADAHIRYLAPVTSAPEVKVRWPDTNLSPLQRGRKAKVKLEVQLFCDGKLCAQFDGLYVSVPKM
T2 sequence (P0ADQ2 whole entry M17A): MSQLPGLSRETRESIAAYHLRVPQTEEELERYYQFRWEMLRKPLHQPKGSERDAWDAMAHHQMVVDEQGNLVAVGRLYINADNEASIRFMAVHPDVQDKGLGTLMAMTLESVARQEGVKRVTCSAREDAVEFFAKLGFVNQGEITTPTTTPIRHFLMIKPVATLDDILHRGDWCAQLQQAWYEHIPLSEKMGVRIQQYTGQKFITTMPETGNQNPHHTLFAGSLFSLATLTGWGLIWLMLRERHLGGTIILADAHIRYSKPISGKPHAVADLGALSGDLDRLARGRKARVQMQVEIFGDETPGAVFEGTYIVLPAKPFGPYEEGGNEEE
T1 sequence (P0ACC7 whole entry): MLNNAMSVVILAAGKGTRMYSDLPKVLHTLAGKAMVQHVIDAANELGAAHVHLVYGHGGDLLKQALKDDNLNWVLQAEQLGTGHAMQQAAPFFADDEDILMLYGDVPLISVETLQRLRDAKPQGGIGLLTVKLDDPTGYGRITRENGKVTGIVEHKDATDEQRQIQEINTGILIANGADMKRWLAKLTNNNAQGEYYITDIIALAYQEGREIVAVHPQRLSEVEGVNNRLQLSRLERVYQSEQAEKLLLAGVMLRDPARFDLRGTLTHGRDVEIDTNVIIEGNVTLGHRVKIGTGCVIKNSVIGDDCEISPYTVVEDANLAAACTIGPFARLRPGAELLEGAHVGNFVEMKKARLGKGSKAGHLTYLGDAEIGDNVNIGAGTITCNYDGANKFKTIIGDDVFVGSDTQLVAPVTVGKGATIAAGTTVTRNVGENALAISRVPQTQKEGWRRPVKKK
T4 sequence (Q8E989 entry or part of it D79A): as the sequence (Q8E989 entry or part of it S54A) above, with A54S, D79A counted along it

Take `CC(=O)SCCNC(=O)CCNC(=O)[C@H](O)C(C)(C)COP(=O)(O)OP(=O)(O)OC[C@H]1O[C@@H](n2cnc3c(N)ncnc32)[C@H](O)[C@@H]1OP(=O)(O)O` [acetyl-CoA]: on GlmU, the Kd is 967 ± 48.3 µM.

With `CC(C)(COP(=O)(O)OP(=O)(O)OC[C@H]1O[C@@H](n2cnc3c(N)ncnc32)[C@H](O)[C@@H]1OP(=O)(O)O)[C@@H](O)C(=O)NCCC(=O)NCCSC(=O)CC(=O)O` [malonyl-CoA], the Km on MadA, on MadB [3] and at MadA^C was > 5 mM in each case. Further, the “malonyl-CoA decarboxylase assay, HPLC” value on MadB [1] was “The MadB(S54A) and MadB(D79A) mutants had nearly normal malonyl-CoA decarboxylase activity”; at MadB [2], “The MadB(S54A) and MadB(D79A) mutants had nearly normal malonyl-CoA decarboxylase activity”.

Source of the values: publication PMC8666670, “Malonyl-acyl carrier protein decarboxylase activity promotes fatty acid and cell envelope biosynthesis in Proteobacteria” (The Journal of Biological Chemistry, 2021).
